The values below come from patent publication US7381729B2, “4-(4-trans-hydroxycyclohexyl)amino-2-phenyl-7H-pyrrolo [2,3D] pyrimidine hydrogen mesylate, its polymorphic forms, and methods for making same” (Solvay Pharmaceuticals B.V., priority 2003, dated 2008).

Each structure is given as a SMILES string. Values after ≈ are worked out from the molar mass of the structure shown.

The nature of data set [1]: Solubility in gastrointestinal fluids. The data set is classed as physicochemical.
Data set [2] can be described thus: Solubility by shake flask method (OECD guideline No. 105) in purified water. To be noted: 25° C.
Protocol: Solubility measurements were carried out with the shake flask method according to the OECD guideline at 25° C.
Data set [3] can be described thus: Relative stability of the polymorphic forms. The class given is physicochemical. As to conditions: form α versus form β.
Data set [4] is described as follows: Stability at ambient conditions. The class given is physicochemical.

The Solubility is the concentration that dissolves in the medium under given conditions. Read a low Solubility as a poorly soluble substance.

Consider `O[C@H]1CC[C@H](Nc2nc(-c3ccccc3)nc3[nH]ccc23)CC1` [Base, 4-(4-trans-hydroxy-cyclohexyl)amino-2-phenyl-7H-pyrrolo[2,3d]pyrimidine], for which, in data set [1], the “solubility in gastrointestinal fluids (in words)” value is on record as “low solubility”. Further, in data set [2], the “Solubility” value turned out to be 5.9 ng/mL (≈ 0.0191 µM). Regarding `CS(=O)(=O)O.OC1CCC(Nc2nc(-c3ccccc3)nc3[nH]ccc23)CC1` (stereo not drawn) [Polymorph α, 4-(4-trans-hydroxy-cyclohexyl)amino-2-phenyl-7H-pyrrolo[2,3d]pyrimidine mesylate], in data set [3], the “polymorphic stability (in words)” value was “metastable with respect to form β”. For the molecule `CS(=O)(=O)O.OC1CCC(Nc2nc(-c3ccccc3)nc3[nH]ccc23)CC1` (stereo not drawn) [Polymorph β, 4-(4-trans-hydroxy-cyclohexyl)amino-2-phenyl-7H-pyrrolo[2,3d]pyrimidine mesylate], the “polymorphic stability (in words)” value in data set [3] is “stable form”.

Turning to `CS(=O)(=O)O.OC1CCC(Nc2nc(-c3ccccc3)nc3[nH]ccc23)CC1` (stereo not drawn) [mesylate salt, 4-(4-trans-hydroxy-cyclohexyl)amino-2-phenyl-7H-pyrrolo[2,3d]-pyrimidine mesylate], the “stability at ambient conditions (in words)” value in data set [4] is “very stable”.
